Assay results published in the NIST ThermoML archive (doi:10.1016/j.jct.2008.10.010).

Assay: molar heat capacity at constant pressure; xn = mol fraction of the nth substance listed
Conditions: 101.3 kPa, Liquid, Small sample (50 mg) DSC

CCC(C)(C)O [2-methylbutan-2-ol] + CCCCCCC
Conditions | molar heat capacity at constant pressure [J/K/mol]
318.15 K, x1 = 0.4051 | 268.55
318.15 K, x1 = 0.4986 | 270.68
318.15 K, x1 = 0.5981 | 271.65
318.15 K, x1 = 0.7015 | 272.08
318.15 K, x1 = 0.8023 | 271.36
318.15 K, x1 = 0.9139 | 270.14
318.15 K, x1 = 0.9609 | 269.17
319.15 K, x1 = 0.0061 | 232.58
319.15 K, x1 = 0.0494 | 240.63
319.15 K, x1 = 0.1 | 249.49
319.15 K, x1 = 0.1547 | 255.72
319.15 K, x1 = 0.1999 | 259.62
319.15 K, x1 = 0.2993 | 265.58
319.15 K, x1 = 0.4051 | 269.3
319.15 K, x1 = 0.4986 | 271.51
319.15 K, x1 = 0.5981 | 272.56
319.15 K, x1 = 0.7015 | 273.04
319.15 K, x1 = 0.8023 | 272.38
319.15 K, x1 = 0.9609 | 270.15
319.16 K, x1 = 0.0249 | 235.12
319.16 K, x1 = 0.9139 | 271.16
320.14 K, x1 = 0.0061 | 232.92
320.14 K, x1 = 0.0249 | 235.28
320.14 K, x1 = 0.0494 | 240.72
320.14 K, x1 = 0.1 | 249.68
320.14 K, x1 = 0.1547 | 255.93
320.14 K, x1 = 0.1999 | 260.03
320.14 K, x1 = 0.2993 | 266.13
320.14 K, x1 = 0.4051 | 269.96
320.14 K, x1 = 0.4986 | 272.22
320.14 K, x1 = 0.5981 | 273.33
320.14 K, x1 = 0.7015 | 273.87
320.14 K, x1 = 0.8023 | 273.27
320.14 K, x1 = 0.9139 | 272.09
320.14 K, x1 = 0.9609 | 270.99
321.15 K, x1 = 0.0061 | 233.36
321.15 K, x1 = 0.0249 | 235.64
321.15 K, x1 = 0.0494 | 240.94
321.15 K, x1 = 0.1 | 249.94
321.15 K, x1 = 0.1547 | 256.42
321.15 K, x1 = 0.1999 | 260.55
321.15 K, x1 = 0.2993 | 266.78
321.15 K, x1 = 0.4051 | 270.74
321.15 K, x1 = 0.4986 | 273.12
321.15 K, x1 = 0.5981 | 274.26
321.15 K, x1 = 0.7015 | 274.94
321.15 K, x1 = 0.8023 | 274.3
321.15 K, x1 = 0.9139 | 273.21
321.15 K, x1 = 0.9609 | 272.08
322.15 K, x1 = 0.0061 | 233.83
322.15 K, x1 = 0.0249 | 235.95
322.15 K, x1 = 0.0494 | 241.13
322.15 K, x1 = 0.1 | 250.19
322.15 K, x1 = 0.1547 | 256.8
322.15 K, x1 = 0.1999 | 261.03
322.15 K, x1 = 0.2993 | 267.36
322.15 K, x1 = 0.4051 | 271.46
322.15 K, x1 = 0.4986 | 273.9
322.15 K, x1 = 0.5981 | 275.18
322.15 K, x1 = 0.7015 | 275.82
322.15 K, x1 = 0.8023 | 275.19
322.15 K, x1 = 0.9139 | 274.13
322.15 K, x1 = 0.9609 | 272.97
323.14 K, x1 = 0.0061 | 234.21
323.14 K, x1 = 0.0249 | 236.15
323.14 K, x1 = 0.0494 | 241.26
323.14 K, x1 = 0.1 | 250.37
323.14 K, x1 = 0.1547 | 257.15
323.14 K, x1 = 0.1999 | 261.38
323.14 K, x1 = 0.2993 | 267.94
323.14 K, x1 = 0.4051 | 272.09
323.14 K, x1 = 0.4986 | 274.67
323.14 K, x1 = 0.5981 | 275.95
323.14 K, x1 = 0.7015 | 276.7
323.14 K, x1 = 0.8023 | 276.15
323.14 K, x1 = 0.9139 | 275.08
323.14 K, x1 = 0.9609 | 273.92
324.15 K, x1 = 0.0061 | 234.52
324.15 K, x1 = 0.0249 | 236.43
324.15 K, x1 = 0.0494 | 241.45
324.15 K, x1 = 0.1 | 250.6
324.15 K, x1 = 0.1547 | 257.46
324.15 K, x1 = 0.1999 | 261.78
324.15 K, x1 = 0.2993 | 268.5
324.15 K, x1 = 0.4051 | 272.8
324.15 K, x1 = 0.4986 | 275.41
324.15 K, x1 = 0.5981 | 276.79
324.15 K, x1 = 0.7015 | 277.57
324.15 K, x1 = 0.8023 | 277.05
324.15 K, x1 = 0.9139 | 275.96
324.15 K, x1 = 0.9609 | 274.86
325.15 K, x1 = 0.0061 | 234.92
325.15 K, x1 = 0.0249 | 236.8
325.15 K, x1 = 0.0494 | 241.6
325.15 K, x1 = 0.1 | 250.76
325.15 K, x1 = 0.1547 | 257.7
325.15 K, x1 = 0.1999 | 262.12
325.15 K, x1 = 0.2993 | 269.04
325.15 K, x1 = 0.4051 | 273.4
325.15 K, x1 = 0.4986 | 276.1
325.15 K, x1 = 0.5981 | 277.56
325.15 K, x1 = 0.7015 | 278.38
325.15 K, x1 = 0.8023 | 277.92
325.15 K, x1 = 0.9139 | 276.88
325.15 K, x1 = 0.9609 | 275.71
326.14 K, x1 = 0.0061 | 235.39
326.14 K, x1 = 0.0249 | 237.1
326.14 K, x1 = 0.0494 | 241.8
326.14 K, x1 = 0.1 | 250.96
326.14 K, x1 = 0.1547 | 258.02
326.14 K, x1 = 0.1999 | 262.54
326.14 K, x1 = 0.2993 | 269.54
326.14 K, x1 = 0.4051 | 274.06
326.14 K, x1 = 0.4986 | 276.85
326.14 K, x1 = 0.5981 | 278.41
326.14 K, x1 = 0.7015 | 279.29
326.14 K, x1 = 0.8023 | 278.83
326.14 K, x1 = 0.9139 | 277.8
326.14 K, x1 = 0.9609 | 276.69
327.14 K, x1 = 0.1999 | 262.84
327.15 K, x1 = 0.0061 | 235.69
327.15 K, x1 = 0.0249 | 237.39
327.15 K, x1 = 0.0494 | 241.94
327.15 K, x1 = 0.1 | 251.07
